What all share (test): NCI tumour cell line growth inhibition, 48 h
Test [1] relates to MDA-N.
Test [2] concerns SNB-78 CNS.
For test [3], the system named is HOP-18 NSCLC.
In test [4] the test system is DMS 273 small cell lung.
Test [5] deals with LXFL 529 NSCLC.
Test [6] relates to KM20L2 colon.
Test [7] deals with M19-MEL melanoma.
The test system of test [8] is RXF-631 renal.
For test [9], the system named is XF 498 CNS.

The structures appear in SMILES notation.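 Protocol summary: plate cells (96-well), add compound at 5 concentrations, incubate 48 h, interpolate endpoints linearly. The concentration for full growth arrest is given as TGI.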 Where only a bound is given, the exact number is not on record here.

The values below come from PubChem BioAssay (NCI).

The compound `CC(=O)[C@@]1(O)CC[C@H]2[C@@H]3C[C@H](C)C4=CC(=O)CC[C@]4(C)[C@H]3[C@@H](O)C[C@@]21C` yielded a TGI in test [1] above 100 µM.

For the compound `N/C(=C\c1ccc(OCc2ccccc2)c(OCc2ccccc2)c1[N+](=O)[O-])C(=O)O`, the TGI in test [2], in [3], in test [4], in [5], in [6] and in [7] was above 100 µM each time.

Consider `COc1c(OC)c(OC)c2c(c1OC)c(=O)c1ccccc1n2C`, for which the TGI in test [1] is above 100 µM.

`Cc1ccccc1C(=O)c1ccccc1O`: the TGI in test [2], in test [3], in test [4], in [5], in test [8] and in test [6] was above 100 µM throughout. The TGI in test [7] and in [9] was above 100 µM throughout.

Consider `CCC1(c2c(F)c(F)c(N)c(F)c2F)CCC(=O)NC1=O` (stereo not drawn), for which the TGI in test [2], in test [3], in [4], in [5], in test [7] and in test [9] was above 100 µM throughout.

`C[S+](C)CCOC(=O)C(=[N+]=[N-])c1ccc([N+](=O)[O-])cc1`: the TGI in [2], in test [3], in test [4], in [5], in [8] and in test [6] was above 100 µM each time. Moreover, the TGI in test [7] and in [9] was above 100 µM throughout.

With `CC1(CO)OC(n2cc(C(=O)NC(=O)OCc3ccccc3)c(=O)[nH]c2=O)CC1O` (stereo not drawn), the TGI in test [3], in test [4], in test [5], in [8], in test [6] and in [7] was above 100 µM each time. This compound also registered a TGI in test [9] above 100 µM.

Take `N#Cc1c(NN)nc(NN)c(C#N)c1-c1ccccc1`: the TGI in test [2], in test [3], in test [4], in [5], in test [8] and in test [6] was above 100 µM each time. For the same compound, the TGI in [7] and in test [9] was above 100 µM each time.

On to `CCCCCCCCCCCCCC(=O)CC(=O)c1c(O)cccc1O`, for which the TGI in [2] was 75.5 µM; in test [3], above 100 µM; in [4], 41.1 µM; in test [5], above 100 µM; in test [6] it was above 100 µM; in test [7], above 100 µM. The compound further had a TGI in [9] of 51.2 µM.

Consider `Cn1c(=O)nc2n(-c3cccc(Br)c3)c3ccccc3nc-2c1=O`, for which the TGI came to 33.3 µM in test [2]; 19.4 µM in test [3]; 14.7 µM in [4]; 19.5 µM in [5]; 6.97 µM in test [6]; 3.03 µM in [7]. The compound further displayed a TGI in test [9] of 15.8 µM.

`CC1(c2cccc3ccccc23)OC(=O)c2ccccc21` (stereo not drawn): the TGI is above 100 µM in [2]; 28.6 µM in [4]; above 100 µM in test [5]; 70.7 µM in test [8]; 35.7 µM in test [6]; 51.3 µM in test [7]. The TGI in [9] turned out to be 45.2 µM.

As to `COC(=O)C(=O)OC1(C(C)=O)CC2(c3ccccc3)OC1(c1ccccc1)c1ccccc12` (stereo not drawn), the TGI in test [2] is 65 µM; in [3], 84.5 µM; in test [4], 30 µM; in test [5] it was 49.2 µM; in [8], above 100 µM; in test [6] it was 30.7 µM. The figures for the TGI in test [7] and in [9] were 31.1 µM and 30.5 µM, respectively.

On to `Oc1ccccc1C=NCc1ccco1`, for which the TGI in [2], in test [3], in [5], in test [8], in test [6] and in test [7] was above 100 µM each time. Also, the TGI in test [9] is above 100 µM.

Take `O=C(CC1(O)C(=O)Nc2c(Cl)ccc(Cl)c21)c1ccc2ccccc2c1` (stereo not drawn): the TGI in [2] was 46.3 µM; in test [3], 37.2 µM; in [4] it was above 100 µM; in [5], 21.8 µM; in [6], 62.1 µM; in test [7], 7.82 µM. Moreover, the TGI in test [9] came out at 25.4 µM.

In the case of `CCOc1ccccc1NC(=O)CC1SC(=Nc2ccc([N+](=O)[O-])cc2)NC1=O` (stereo not drawn), the TGI in test [2] was above 100 µM; in [3] it was 51.1 µM; in test [5], 39.9 µM; in test [6] it was 42.2 µM; in test [7], 64.4 µM; in test [9] it was 32.4 µM.

`O=C1NC(=O)C2C(=O)NC(=O)C1C2(c1ccccc1)c1cc[nH]c1` (stereo not drawn): the TGI in test [2], in [4], in test [5], in test [7] and in [9] was above 100 µM throughout.

For `O=NNc1ccc(S(=O)(=O)c2ccccc2)cn1`, in [1], the TGI is above 100 µM.

For the compound `BrC1=CC=C2NC=CC3=CC=NC1C32` (stereo not drawn), the TGI in test [2] is above 100 µM; in [3], 66.8 µM; in test [4], above 92.5 µM; in [5] it was above 70 µM; in [8], above 100 µM; in test [6] it was above 100 µM. Besides, the TGI turned out to be 30.1 µM in [7] and 48 µM in [9].
